# Experimental data reported in ChEMBL document CHEMBL1944561, “Discovery and SAR exploration of a novel series of imidazo[4,5-b]pyrazin-2-ones as potent and selective mTOR kinase inhibitors” (Bioorg Med Chem Lett, 2011).
# Assays:
# [1] = biological target: T1, Serine/threonine-protein kinase mTOR (Homo sapiens, UniProt P42345); test: Inhibition of mTOR
# PC-3 = test: Antiproliferative activity against human PC3 cells
# [2] = biological target: Phosphatidylinositol 4,5-bisphosphate 3-kinase catalytic subunit alpha isoform (Homo sapiens, UniProt P42336); test: Inhibition of PI3Kalpha
# [3] = Metabolic stability in rat hepatocytes assessed as compound remaining after 60 mins; assay type: ADME, cell-based, Hepatocyte; conditions: read-out: Stability
# [4] = biological target: T1, Serine/threonine-protein kinase mTOR; test: Inhibition of mTOR-mediated S6 phosphorylation in human PC3 cells; assay type: cell-based, PC-3
# [5] = biological target: T1, Serine/threonine-protein kinase mTOR; test: Inhibition of mTOR-mediated Akt phosphorylation in human PC3 cells; assay type: cell-based, PC-3
# Sequence of Phosphatidylinositol 4,5-bisphosphate 3-kinase catalytic subunit alpha isoform (P42336 whole entry, canonical isoform): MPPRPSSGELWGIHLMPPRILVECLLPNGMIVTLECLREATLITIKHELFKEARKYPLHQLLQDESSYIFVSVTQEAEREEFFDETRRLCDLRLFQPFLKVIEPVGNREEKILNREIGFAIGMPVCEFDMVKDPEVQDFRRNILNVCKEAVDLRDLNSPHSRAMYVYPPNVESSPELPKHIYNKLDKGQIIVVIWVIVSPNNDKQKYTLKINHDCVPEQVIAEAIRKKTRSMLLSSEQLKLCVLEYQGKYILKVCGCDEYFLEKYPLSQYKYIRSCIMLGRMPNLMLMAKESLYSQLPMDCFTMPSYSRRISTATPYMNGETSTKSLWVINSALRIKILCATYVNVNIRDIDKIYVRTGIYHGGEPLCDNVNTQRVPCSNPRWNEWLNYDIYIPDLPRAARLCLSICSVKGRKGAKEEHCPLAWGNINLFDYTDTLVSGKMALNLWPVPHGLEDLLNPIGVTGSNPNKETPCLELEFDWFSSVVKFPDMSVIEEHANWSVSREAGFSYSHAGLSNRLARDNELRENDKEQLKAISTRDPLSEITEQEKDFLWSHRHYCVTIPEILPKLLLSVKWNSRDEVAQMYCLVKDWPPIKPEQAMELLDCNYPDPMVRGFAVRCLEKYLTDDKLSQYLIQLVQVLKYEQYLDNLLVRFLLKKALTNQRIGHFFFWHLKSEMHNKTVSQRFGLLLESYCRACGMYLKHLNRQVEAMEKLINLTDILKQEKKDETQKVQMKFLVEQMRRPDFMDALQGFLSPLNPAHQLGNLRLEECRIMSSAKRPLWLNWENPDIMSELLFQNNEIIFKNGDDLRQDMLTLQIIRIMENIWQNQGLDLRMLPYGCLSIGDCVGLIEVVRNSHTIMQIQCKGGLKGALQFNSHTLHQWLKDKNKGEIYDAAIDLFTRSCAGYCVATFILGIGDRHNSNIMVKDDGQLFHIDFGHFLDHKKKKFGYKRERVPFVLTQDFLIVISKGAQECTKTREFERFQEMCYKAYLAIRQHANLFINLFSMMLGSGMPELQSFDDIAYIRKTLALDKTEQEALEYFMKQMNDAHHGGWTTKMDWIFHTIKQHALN
Structure (SMILES),IC50 [1],also measured
O=c1[nH]c2ncc(-c3ccc(O)cc3)nc2n1Cc1cccc(O)c1,1050 nM,–
O=c1[nH]c2ncc(-c3ccc4[nH]cnc4c3)nc2n1CC1CCOCC1,30 nM,–
O=c1[nH]c2ncc(-c3ccc(-c4ncc[nH]4)cc3)nc2n1CC1CCOCC1,–,IC50 (PC-3): 916 nM
O=c1[nH]c2ncc(-c3cnc4[nH]cnc4c3)nc2n1CC1CCOCC1,390 nM,–
CN1CCC(Cn2c(=O)[nH]c3ncc(-c4ccc(O)cc4)nc32)CC1,14100 nM,–
Nc1nc2cc(-c3cnc4[nH]c(=O)n(CC5CCOCC5)c4n3)ccc2[nH]1,10 nM,–
CC(C)n1c(=O)[nH]c2ncc(-c3ccc(O)cc3)nc21,1040 nM,–
O=c1[nH]c2ncc(-c3ccc(O)cc3)nc2n1C1CCCCC1,2880 nM,–
CC(C)Cn1c(=O)[nH]c2ncc(-c3ccc(O)cc3)nc21,1020 nM,–
O=c1[nH]c2ncc(-c3ccc(O)cc3)nc2n1C1CCOCC1,1670 nM,–
NC(=O)[C@H]1CC[C@@H](n2c(=O)[nH]c3ncc(-c4ccc(O)cc4)nc32)CC1,179 nM,IC50 [4]: > 5000 nM; IC50 [5]: > 5000 nM; IC50 (PC-3): > 5000 nM
NC(=O)[C@H]1CC[C@H](n2c(=O)[nH]c3ncc(-c4ccc(O)cc4)nc32)CC1,178 nM,IC50 [4]: > 5000 nM; IC50 [5]: > 5000 nM; IC50 (PC-3): > 5000 nM
O=c1[nH]c2ncc(-c3ccc4[nH]ccc4c3)nc2n1CC1CCOCC1,21 nM,IC50 [2]: > 30000 nM; IC50 [4]: 231 nM; IC50 [5]: 50 nM; IC50 (PC-3): 602 nM
CO[C@H]1C[C@@H]2CC[C@@H](C)[C@@](O)(O2)C(=O)C(=O)N2CCCC[C@H]2C(=O)O[C@H]([C@H](C)C[C@@H]2CC[C@@H](O)[C@H](OC)C2)CC(=O)[C@H](C)/C=C(\C)[C@@H](O)[C@@H](OC)C(=O)[C@H](C)C[C@H](C)/C=C/C=C/C=C/1C [SIROLIMUS],–,IC50 (PC-3): < 10 nM
COCCn1c(=O)[nH]c2ncc(-c3ccc(O)cc3)nc21,2380 nM,–
CNc1nc2cc(-c3cnc4[nH]c(=O)n(CC5CCOCC5)c4n3)ccc2[nH]1,6 nM,IC50 [2]: > 30000 nM; IC50 [4]: > 5000 nM; IC50 (PC-3): > 5000 nM

# Now from value to compound, other results behind:
IC50 [1],Structure (SMILES),also measured
120 nM,CNC(=O)c1ccc(-c2cnc3[nH]c(=O)n(CC4CCCCC4)c3n2)cc1,–
8300 nM,NCc1ccc(-c2cnc3[nH]c(=O)n(CC4CCCCC4)c3n2)cc1,–
3500 nM,O=c1[nH]c2ncc(-c3ccc4cc[nH]c4c3)nc2n1CC1CCCCC1,–
1590 nM,O=c1[nH]c2ncc(-c3ccc(-c4nn[nH]n4)cc3)nc2n1CC1CCCCC1,–
60 nM,O=c1[nH]c2ncc(-c3ccc(CO)cc3)nc2n1CC1CCCCC1,IC50 [2]: > 30000 nM; remaining at 1 h [3]: 8%
340 nM,O=c1[nH]c2ncc(-c3ccc(O)cc3)nc2n1CC1CCOCC1,–
1360 nM,O=c1[nH]c2ncc(-c3ccc(-c4cnco4)cc3)nc2n1CC1CCCCC1,–
9 nM,O=c1[nH]c2ncc(-c3ccc(-c4nc[nH]n4)cc3)nc2n1CC1CCCCC1,–
130 nM,O=C(O)c1ccc(-c2cnc3[nH]c(=O)n(CC4CCCCC4)c3n2)cc1,IC50 [2]: 23500 nM
> 10000 nM,O=c1[nH]c2ncc(-c3ccc(-n4ccnn4)cc3)nc2n1CC1CCCCC1,–
120 nM,O=c1[nH]c2ncc(-c3ccc(-c4cn[nH]c4)cc3)nc2n1CC1CCCCC1,IC50 [2]: > 30000 nM
8900 nM,CC(C)NC(=O)c1ccc(-c2cnc3[nH]c(=O)n(CC4CCCCC4)c3n2)cc1,–
2 nM,Nc1nc2ccc(-c3cnc4[nH]c(=O)n(CC5CCCCC5)c4n3)cc2[nH]1,IC50 [4]: 201 nM; IC50 [5]: 92 nM; IC50 (PC-3): 566 nM
190 nM,O=c1[nH]c2ncc(-c3ccc4[nH]ncc4c3)nc2n1CC1CCCCC1,IC50 [2]: 12600 nM; IC50 [4]: 633 nM; IC50 (PC-3): 2120 nM
> 10000 nM,COC(=O)c1ccc(-c2cnc3[nH]c(=O)n(CC4CCCCC4)c3n2)cc1,–
780 nM,O=c1[nH]c2ncc(-c3ccc(O)cc3)nc2n1CC1CCCCC1,–
70 nM,NC(=O)c1ccc(-c2cnc3[nH]c(=O)n(CC4CCCCC4)c3n2)cc1,IC50 [2]: > 30000 nM
63 nM,O=c1[nH]c2ncc(-c3ccc4[nH]ccc4c3)nc2n1CC1CCCCC1,IC50 [2]: > 30000 nM
> 10000 nM,O=c1[nH]c2ncc(-c3ccccc3)nc2n1CC1CCCCC1,–
